Test results from patent US20210401863A1, “TREATMENT AND PREVENTION OF NEISSERIA GONORRHOEAE INFECTION USING CMP-ACTIVATED NONULOSONATE ANALOG COMPOUNDS” (NATIONAL RESEARCH COUNCIL OF CANADA, priority 2015, published 2021).
Entries after “also recorded” stand apart in the source; their conditions may differ. Read-outs that look alike come from different tables or passages of the source.

Experiments:
N. gonorrhoeae F62 ΔlgtD = type: cell-based, Neisseria gonorrhoeae
Description: Generally, bacteria (F62 ΔlgtD) grown overnight on chocolate agar plates were suspended in gonococcal liquid media supplemented with IsoVitaleX [29] that contained specified concentrations of the CMP-nonulosonate. Bacteria were then incubated at 37° C. for the period specified in each experiment.
Serum bactericidal assays were performed as follows, similar to methods outlined in [32,33] and in U.S. Pat. No. 9,765,106. Bacteria were harvested from an overnight culture on chocolate agar plates and ˜10^5 CFU of Ng were grown in liquid media containing the concentrations of CMP-NuIO as specified for each experiment. Bacteria were diluted in Morse A and ˜2000 CFU of Ng F62 ΔlgtD were incubated with NHS (concentration specified for each experiment). The final reaction volumes were maintained at 150 μL. Aliquots of 25 μL of reaction mixtures were plated onto chocolate agar in duplicate at the beginning of the assay (t0) and again after incubation at 37° C. for 30 minutes (t30). Survival was calculated as the number of viable colonies at t30 relative to t0.
Addition of a terminal Neu5Ac residue to the LNnT LOS of N. gonorrhoeae that occurs in vivo or following the addition of CMP-Neu5Ac to growth media results in resistance to complement-dependent killing. We next determined the effects of LNnT incorporation of KDN on the ability of N. gonorrhoeae F62 ΔlgtD to resist complement-dependent killing by normal human sera at concentrations of 3.3% or 10%. Bacteria were grown either in media alone, or media supplemented with 20 μg/mL of CMP-Neu5Ac or CMP-KDN. In addition, CMP-NulO competition experiments were also performed with CMP-Neu5Ac, CMP-Leg5Ac7Ac and CMP-KDN at CMP-NulO concentrations of either 20 μg/mL or 2 μg/mL as indicated, where the second CMP-NulO was added 15 minutes after the first (Table 1 below). To note, these CMP-NulO competition experiments are a method to examine the ability of select CMP-NulOs to counter the enhanced serum resistance due to CMP-Neu5Ac addition, providing information on their therapeutic potential (as any potential therapeutic will be required to compete with CMP-Neu5Ac in vivo).

N. gonorrhoeae H041 = experiment: BALB/c mouse vaginal colonization model; type: in vivo; conditions: 10 μg intravaginally daily; Premarin treated BALB/c mice
Description: FIG. 2: Female BALB/c mice 5-6 weeks of age (Jackson Laboratories) in the diestrus phase of the estrous cycle were started on treatment (that day) with 0.5 mg of Premarin (Pfizer) given subcutaneously on each of three days; −2, 0 and +2 days (before, the day of and after inoculation) to prolong the estrus phase of the cycle and promote susceptibility to N. gonorrhoeae infection. Antibiotics (vancomycin, colistin, neomycin, trimethoprim and streptomycin) that were ineffective against N. gonorrhoeae were also used to reduce competitive microflora. Mice (n=40) were then infected with 10^6 CFU of strain H041. Three groups of mice (n=10/group) were treated with 10 μg intravaginally daily (first dose was administered 30 minutes before the introduction of bacteria) with one of the following CMP-NulOs in normal saline: CMP-Leg5Ac7Ac, CMP-Neu5Ac9Az or CMP-KDN. A fourth group (n=10) was given saline (vehicle control). Vaginal swabs were obtained daily from each animal, serially diluted and plated on chocolate agar containing vancomycin, colistin, neomycin, trimethoprim and streptomycin (VCNTS) to quantify bacterial loads. A. Median time to clearance was estimated using Kaplan-Meier survival curves; the times to clearance were compared between groups using a log-rank test. P<0.0001 for the control versus each of the treatment groups. Time to clearance between each of the treatment groups was similar (P>0.05). B. The mean area under the curve (log10 CFU vs. time) was computed for each mouse to estimate the bacterial burden over time (cumulative infection); the means under the curves were compared between groups using the Kruskal-Wallis nonparametric rank sum test because distributions were skewed or kurtotic. Groups were compared using Dunn's multiple comparison test. ****, P<0.0001; **, P<0.01; *, P<0.05. The differences among the groups that received CMP-NulOs were not significant.
The mouse model experiments and statistical analysis were conducted as described in the art and in U.S. Pat. No. 9,765,106. […]

Question: Which “% survival in 3.3% serum” value (N. gonorrhoeae F62 ΔlgtD; CMP-Neu5Ac (20 μg/mL) first, labelled CMP-NulO (20 μg/mL) added 15 minutes later, 3.3% serum) does the source give for `Nc1ccn([C@@H]2O[C@H](COP(=O)(O)O[C@@]3(C(=O)O)CC(O)[C@@H](O)C([C@H](O)[C@H](O)CO)O3)C(O)C2O)c(=O)n1` (stereo partly drawn) [CMP-KDN, cytidine 5′-monophospho-3-deoxy-D-glycero-D-galacto-nonulosonic acid] here?
Answer: The value was 107%.

Question: And the “% survival in 10% serum” value (N. gonorrhoeae F62 ΔlgtD; CMP-Neu5Ac (20 μg/mL) first, labelled CMP-NulO (20 μg/mL) added 15 minutes later, 10% serum)?
Answer: The value was 108%.

Question: And the “serum resistance (in words)” value (N. gonorrhoeae F62 ΔlgtD; CMP-NulO alone, 3.3% serum)?
Answer: Its value is “complete serum resistance was observed”.

Question: What about the “serum sensitivity (in words)” value (N. gonorrhoeae F62 ΔlgtD; CMP-NulO alone, 10% serum) of the same compound?
Answer: The value was “serum sensitivity was observed”.

Question: What about the “countering of serum resistance mediated by CMP-Neu5Ac (competition, in words)” value (N. gonorrhoeae F62 ΔlgtD; CMP-NulO competition, second CMP-NulO 15 minutes after the first, 3.3% and 10% serum) of the same compound?
Answer: Its value is “could only counter CMP-Neu5Ac induced serum resistance if it was provided before CMP-Neu5Ac”.

Question: And the “% survival in 3.3% serum” value (N. gonorrhoeae F62 ΔlgtD; Table 1, CMP-NulO 20 μg/mL alone, 3.3% serum)?
Answer: The value was 110%.

Question: And the “% survival in 10% serum” value (N. gonorrhoeae F62 ΔlgtD; Table 1, CMP-NulO 20 μg/mL alone, 10% serum)?
Answer: Its value is 11%.

Question: What about the “% survival in 3.3% serum” value (N. gonorrhoeae F62 ΔlgtD; labelled CMP-NulO (20 μg/mL) first, CMP-Neu5Ac (2 μg/mL) added 15 minutes later, 3.3% serum) of the same compound?
Answer: Its value is 107%.

Question: And the “% survival in 10% serum” value (N. gonorrhoeae F62 ΔlgtD; labelled CMP-NulO (20 μg/mL) first, CMP-Neu5Ac (2 μg/mL) added 15 minutes later, 10% serum)?
Answer: Its value is 10%.

Question: What about the “% survival in 3.3% serum” value (N. gonorrhoeae F62 ΔlgtD; labelled CMP-NulO (20 μg/mL) first, CMP-Neu5Ac (20 μg/mL) added 15 minutes later, 3.3% serum) of the same compound?
Answer: The value was 107%.

Question: What about the “% survival in 10% serum” value (N. gonorrhoeae F62 ΔlgtD; labelled CMP-NulO (20 μg/mL) first, CMP-Neu5Ac (20 μg/mL) added 15 minutes later, 10% serum) of the same compound?
Answer: The value was 11%.

Question: What about the “attenuation of N. gonorrhoeae H041 infection” value (N. gonorrhoeae H041) of the same compound?
Answer: Its value is “some efficacy; also recorded: significantly attenuated; also recorded: just as efficacious in an animal model of colonization”.
